From PubChem BioAssay (NCI)
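These data come from cells grown in 96-well plates and exposed to compound for 48 hours at five concentrations. At the GI50, growth is halved. At the TGI there is no net growth.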

Legend:
Experiment in all cases: NCI tumour cell line growth inhibition, 48 h
HS 578T breast = system: HS 578T breast
HL-60(TB) leukemia = system: HL-60(TB) leukemia
DU-145 prostate = system: DU-145 prostate
SK-MEL-2 melanoma = system: SK-MEL-2 melanoma
HOP-62 NSCLC = system: HOP-62 NSCLC
MDA-MB-435 = system: MDA-MB-435
UACC-257 melanoma = system: UACC-257 melanoma
HCT-116 colon = system: HCT-116 colon
UACC-62 melanoma = system: UACC-62 melanoma
ACHN renal = system: ACHN renal
CCRF-CEM leukemia = system: CCRF-CEM leukemia
SK-OV-3 ovarian = system: SK-OV-3 ovarian
SW-620 colon = system: SW-620 colon
MCF7 breast = system: MCF7 breast
MDA-MB-468 breast = system: MDA-MB-468 breast
SK-MEL-5 melanoma = system: SK-MEL-5 melanoma
NCI-H460 lung = system: NCI-H460 lung
PC-3 prostate = system: PC-3 prostate
T-47D breast = system: T-47D breast
KM12 colon = system: KM12 colon
A549 NSCLC = system: A549 NSCLC
MALME-3M melanoma = system: MALME-3M melanoma
K-562 leukemia = system: K-562 leukemia
SF-539 CNS = system: SF-539 CNS
EKVX NSCLC = system: EKVX NSCLC
BT-549 breast = system: BT-549 breast
OVCAR-4 ovarian = system: OVCAR-4 ovarian
SR leukemia = system: SR leukemia
HCC-2998 colon = system: HCC-2998 colon
MOLT-4 leukemia = system: MOLT-4 leukemia
U251 CNS = system: U251 CNS
M14 melanoma = system: M14 melanoma
TK-10 renal = system: TK-10 renal
SN12C renal = system: SN12C renal
SF-295 CNS = system: SF-295 CNS
COLO 205 colon = system: COLO 205 colon
NCI-H226 lung = system: NCI-H226 lung
IGROV1 ovarian = system: IGROV1 ovarian
SK-MEL-28 melanoma = system: SK-MEL-28 melanoma
UO-31 renal = system: UO-31 renal
HOP-92 NSCLC = system: HOP-92 NSCLC
OVCAR-5 ovarian = system: OVCAR-5 ovarian
HT29 colon = system: HT29 colon
OVCAR-3 ovarian = system: OVCAR-3 ovarian
NCI-H23 lung = system: NCI-H23 lung
MDA-MB-231 breast = system: MDA-MB-231 breast
RPMI-8226 leukemia = system: RPMI-8226 leukemia
A498 renal = system: A498 renal
LOX IMVI melanoma = system: LOX IMVI melanoma
OVCAR-8 ovarian = system: OVCAR-8 ovarian
786-0 renal = system: 786-0 renal
RXF 393 renal = system: RXF 393 renal
SNB-19 CNS = system: SNB-19 CNS
HCT-15 colon = system: HCT-15 colon
CAKI-1 renal = system: CAKI-1 renal
NCI/ADR-RES ovarian = system: NCI/ADR-RES ovarian
NCI-H522 lung = system: NCI-H522 lung
SF-268 CNS = system: SF-268 CNS

**Q.** For `COc1cccc(/C=C/C(=O)c2ccc(OC)c(S(N)(=O)=O)c2)c1`, which GI50 (HS 578T breast) is on record?
**A.** 15.5 µM

**Q.** And the TGI (HS 578T breast)?
**A.** 50.6 µM

**Q.** What about the GI50 (HL-60(TB) leukemia) of the same molecule?
**A.** 1.88 µM

**Q.** And the TGI (HL-60(TB) leukemia)?
**A.** 5.18 µM

**Q.** And the GI50 (DU-145 prostate)?
**A.** 5.73 µM

**Q.** What about the TGI (DU-145 prostate) of the same molecule?
**A.** 18.1 µM

**Q.** And the GI50 (SK-MEL-2 melanoma)?
**A.** 14 µM

**Q.** And the TGI (SK-MEL-2 melanoma)?
**A.** 27.3 µM

**Q.** What about the GI50 (HOP-62 NSCLC) of the same molecule?
**A.** 2.7 µM

**Q.** What about the TGI (HOP-62 NSCLC) of the same molecule?
**A.** 10.2 µM

**Q.** What about the GI50 (MDA-MB-435) of the same molecule?
**A.** 4.66 µM

**Q.** What about the TGI (MDA-MB-435) of the same molecule?
**A.** 16.5 µM

**Q.** And the GI50 (UACC-257 melanoma)?
**A.** 10.2 µM

**Q.** What about the TGI (UACC-257 melanoma) of the same molecule?
**A.** 22.5 µM

**Q.** And the GI50 (HCT-116 colon)?
**A.** 1.59 µM

**Q.** What about the TGI (HCT-116 colon) of the same molecule?
**A.** 3.31 µM

**Q.** And the GI50 (UACC-62 melanoma)?
**A.** 4.16 µM

**Q.** What about the TGI (UACC-62 melanoma) of the same molecule?
**A.** 16.9 µM

**Q.** And the GI50 (ACHN renal)?
**A.** 1.85 µM

**Q.** And the TGI (ACHN renal)?
**A.** 3.7 µM

**Q.** What about the GI50 (CCRF-CEM leukemia) of the same molecule?
**A.** 2.51 µM

**Q.** What about the TGI (CCRF-CEM leukemia) of the same molecule?
**A.** 6.23 µM

**Q.** What about the GI50 (SK-OV-3 ovarian) of the same molecule?
**A.** 10.1 µM

**Q.** And the TGI (SK-OV-3 ovarian)?
**A.** 21.9 µM

**Q.** What about the GI50 (SW-620 colon) of the same molecule?
**A.** 3.16 µM

**Q.** What about the TGI (SW-620 colon) of the same molecule?
**A.** 12 µM

**Q.** And the GI50 (MCF7 breast)?
**A.** 2.87 µM

**Q.** And the TGI (MCF7 breast)?
**A.** 12.5 µM

**Q.** And the GI50 (MDA-MB-468 breast)?
**A.** 1.99 µM

**Q.** And the TGI (MDA-MB-468 breast)?
**A.** 7.17 µM

**Q.** And the GI50 (SK-MEL-5 melanoma)?
**A.** 5.23 µM

**Q.** What about the TGI (SK-MEL-5 melanoma) of the same molecule?
**A.** 18 µM

**Q.** What about the GI50 (NCI-H460 lung) of the same molecule?
**A.** 3.45 µM

**Q.** And the TGI (NCI-H460 lung)?
**A.** 13.8 µM

**Q.** And the GI50 (PC-3 prostate)?
**A.** 5.25 µM

**Q.** And the TGI (PC-3 prostate)?
**A.** 18.4 µM

**Q.** What about the GI50 (T-47D breast) of the same molecule?
**A.** 2.97 µM

**Q.** And the TGI (T-47D breast)?
**A.** 14.2 µM

**Q.** What about the GI50 (KM12 colon) of the same molecule?
**A.** 2.12 µM

**Q.** And the TGI (KM12 colon)?
**A.** 5.11 µM

**Q.** What about the GI50 (A549 NSCLC) of the same molecule?
**A.** 2.64 µM

**Q.** And the TGI (A549 NSCLC)?
**A.** 11.5 µM

**Q.** What about the GI50 (MALME-3M melanoma) of the same molecule?
**A.** 12.4 µM

**Q.** And the TGI (MALME-3M melanoma)?
**A.** 25.1 µM

**Q.** And the GI50 (K-562 leukemia)?
**A.** 2.12 µM

**Q.** And the TGI (K-562 leukemia)?
**A.** 6.4 µM

**Q.** And the GI50 (SF-539 CNS)?
**A.** 1.96 µM

**Q.** What about the TGI (SF-539 CNS) of the same molecule?
**A.** 4.56 µM

**Q.** And the GI50 (EKVX NSCLC)?
**A.** 8.05 µM

**Q.** What about the TGI (EKVX NSCLC) of the same molecule?
**A.** 20.9 µM

**Q.** And the GI50 (BT-549 breast)?
**A.** 2.52 µM

**Q.** What about the TGI (BT-549 breast) of the same molecule?
**A.** 8.85 µM

**Q.** What about the GI50 (OVCAR-4 ovarian) of the same molecule?
**A.** 4.87 µM

**Q.** What about the TGI (OVCAR-4 ovarian) of the same molecule?
**A.** 20.1 µM

**Q.** And the GI50 (SR leukemia)?
**A.** 1.26 µM

**Q.** What about the TGI (SR leukemia) of the same molecule?
**A.** 4.09 µM

**Q.** And the GI50 (HCC-2998 colon)?
**A.** 2.88 µM

**Q.** And the TGI (HCC-2998 colon)?
**A.** 12.1 µM

**Q.** And the GI50 (MOLT-4 leukemia)?
**A.** 2.12 µM

**Q.** And the TGI (MOLT-4 leukemia)?
**A.** 5.16 µM

**Q.** What about the GI50 (U251 CNS) of the same molecule?
**A.** 2.5 µM

**Q.** What about the TGI (U251 CNS) of the same molecule?
**A.** 9.83 µM

**Q.** And the GI50 (M14 melanoma)?
**A.** 4.42 µM

**Q.** What about the TGI (M14 melanoma) of the same molecule?
**A.** 17.7 µM

**Q.** What about the GI50 (TK-10 renal) of the same molecule?
**A.** 2.81 µM

**Q.** What about the TGI (TK-10 renal) of the same molecule?
**A.** 13.1 µM

**Q.** What about the GI50 (SN12C renal) of the same molecule?
**A.** 2.74 µM

**Q.** And the TGI (SN12C renal)?
**A.** 10.9 µM

**Q.** What about the GI50 (SF-295 CNS) of the same molecule?
**A.** 2.9 µM

**Q.** And the TGI (SF-295 CNS)?
**A.** 12.6 µM

**Q.** And the GI50 (COLO 205 colon)?
**A.** 2.93 µM

**Q.** What about the TGI (COLO 205 colon) of the same molecule?
**A.** 11 µM

**Q.** What about the GI50 (NCI-H226 lung) of the same molecule?
**A.** 2.72 µM

**Q.** What about the TGI (NCI-H226 lung) of the same molecule?
**A.** 11.1 µM

**Q.** What about the GI50 (IGROV1 ovarian) of the same molecule?
**A.** 2.98 µM

**Q.** What about the TGI (IGROV1 ovarian) of the same molecule?
**A.** 12.5 µM

**Q.** And the GI50 (SK-MEL-28 melanoma)?
**A.** 9.04 µM

**Q.** And the TGI (SK-MEL-28 melanoma)?
**A.** 21.1 µM

**Q.** And the GI50 (UO-31 renal)?
**A.** 2.03 µM

**Q.** And the TGI (UO-31 renal)?
**A.** 9.93 µM

**Q.** And the GI50 (HOP-92 NSCLC)?
**A.** 6.37 µM

**Q.** And the TGI (HOP-92 NSCLC)?
**A.** 20.2 µM

**Q.** What about the GI50 (OVCAR-5 ovarian) of the same molecule?
**A.** 2.61 µM

**Q.** What about the TGI (OVCAR-5 ovarian) of the same molecule?
**A.** 10.8 µM

**Q.** And the GI50 (HT29 colon)?
**A.** 1.91 µM

**Q.** What about the TGI (HT29 colon) of the same molecule?
**A.** 4.05 µM

**Q.** And the GI50 (OVCAR-3 ovarian)?
**A.** 2.9 µM

**Q.** And the TGI (OVCAR-3 ovarian)?
**A.** 10.8 µM

**Q.** And the GI50 (NCI-H23 lung)?
**A.** 4.66 µM

**Q.** What about the TGI (NCI-H23 lung) of the same molecule?
**A.** 16.9 µM

**Q.** What about the GI50 (MDA-MB-231 breast) of the same molecule?
**A.** 3.8 µM

**Q.** What about the TGI (MDA-MB-231 breast) of the same molecule?
**A.** 13.6 µM

**Q.** And the GI50 (RPMI-8226 leukemia)?
**A.** 2.54 µM

**Q.** What about the TGI (RPMI-8226 leukemia) of the same molecule?
**A.** 7.24 µM

**Q.** What about the GI50 (A498 renal) of the same molecule?
**A.** 14.3 µM

**Q.** And the TGI (A498 renal)?
**A.** 28 µM

**Q.** What about the GI50 (LOX IMVI melanoma) of the same molecule?
**A.** 1.64 µM

**Q.** What about the TGI (LOX IMVI melanoma) of the same molecule?
**A.** 3.47 µM

**Q.** And the GI50 (OVCAR-8 ovarian)?
**A.** 2.96 µM

**Q.** And the TGI (OVCAR-8 ovarian)?
**A.** 12 µM

**Q.** What about the GI50 (786-0 renal) of the same molecule?
**A.** 2.9 µM

**Q.** What about the TGI (786-0 renal) of the same molecule?
**A.** 11 µM

**Q.** And the GI50 (RXF 393 renal)?
**A.** 3.39 µM

**Q.** What about the TGI (RXF 393 renal) of the same molecule?
**A.** 15.1 µM

**Q.** What about the GI50 (SNB-19 CNS) of the same molecule?
**A.** 4.82 µM

**Q.** What about the TGI (SNB-19 CNS) of the same molecule?
**A.** 17.2 µM

**Q.** What about the GI50 (HCT-15 colon) of the same molecule?
**A.** 1.27 µM

**Q.** And the TGI (HCT-15 colon)?
**A.** 3.34 µM

**Q.** What about the GI50 (CAKI-1 renal) of the same molecule?
**A.** 4.16 µM

**Q.** What about the TGI (CAKI-1 renal) of the same molecule?
**A.** 16.1 µM

**Q.** And the GI50 (NCI/ADR-RES ovarian)?
**A.** 2.83 µM

**Q.** And the TGI (NCI/ADR-RES ovarian)?
**A.** 9.24 µM

**Q.** And the GI50 (NCI-H522 lung)?
**A.** 2.48 µM

**Q.** What about the TGI (NCI-H522 lung) of the same molecule?
**A.** 8.39 µM

**Q.** What about the GI50 (SF-268 CNS) of the same molecule?
**A.** 4.85 µM

**Q.** What about the TGI (SF-268 CNS) of the same molecule?
**A.** 18.9 µM
